According to patent publication US20200297684A1, “TOPICAL COMPOSITIONS AND METHODS FOR TREATING ACNE VULGARIS” (Bausch Health Ireland Limited, priority 2019, published 2020):
Where “and” joins values, the source holds several entries; their conditions need not be identical. Identical values can stand only once.

Assays:
[1] = Chemical stability of tretinoin in an admixture with benzoyl peroxide at room condition and 32° C., under room light; assay type: physicochemical; conditions: for Assay (% label claim), 32° C., Room Light / Assay (% label claim), Room Condition: tretinoin in admixture with benzoyl peroxide
Description: The chemical stability of tretinoin in an admixture with benzoyl peroxide of the present invention at room temperature and 32 degrees C., under room light condition is shown in Table 1.
More than 97 and 96 percent of treinoin in the original admixture of the present invention remains after 24 hours at room condition and 32° C., under room light, respectively. Such stability ensures that the therapeutic efficacy of tretinoin is not diminished between once-a-day applications.

[2] = equal parts of 0.05% tretinoin gel and gel containing 5% BPO and clindamycin phosphate; 32° C. for 7 hours; cited from earlier work
[3] = time 0 hr, replicates top/middle/bottom

time for which tretinoin in the admixture is chemically stable ([1]; admixture of tretinoin and benzoyl peroxide compositions, even at 32° C. under room light condition): at least 24 hours | percent of tretinoin in the original admixture remaining ([1]; after 24 hours at 32° C., under room light): > 96% | percent of tretinoin in the original admixture remaining ([1]; after 24 hours at room condition): More than 97% | Assay (% label claim), Room Condition ([1]; time 8 hr): 99.5 % label claim
SMILES: CC1=C(/C=C/C(C)=C/C=C/C(C)=C/C(=O)O)C(C)(C)CCC1 [Tretinoin, tretinoin]
Assay (% label claim), 32° C., Room Light [1, 3]: 98.8 % label claim and 97.1 % label claim and 98.3 % label claim | Assay (% label claim), Room Condition [1, 3]: 98.8 % label claim and 97.1 % label claim and 98.3 % label claim | Assay (% label claim), 32° C., Room Light ([1]; time 1 hr): 98.5 % label claim and 97.1 % label claim | Assay (% label claim), Room Condition ([1]; time 1 hr): 96.8 % label claim and 97.2 % label claim | Assay (% label claim), Room Condition ([1]; time 3 hr): 97.8 % label claim and 97.5 % label claim | Assay (% label claim), 32° C., Room Light ([1]; time 4 hr): 98.6 % label claim and 98.2 % label claim | Assay (% label claim), Room Condition ([1]; time 5 hr): 97.0 % label claim and 97.3 % label claim | Assay (% label claim), 32° C., Room Light ([1]; time 12 hr): 98.9 % label claim and 97.0 % label claim | Assay (% label claim), Room Condition ([1]; time 12 hr): 97.3 % label claim and 97.8 % label claim | Assay (% label claim), 32° C., Room Light ([1]; time 24 hr): 96.6 % label claim and 97.8 % label claim | Assay (% label claim), Room Condition ([1]; time 24 hr): 98.1 % label claim and 97.4 % label claim | stability of tretinoin in the mixture [2]: stable
